This is an account of results in the Kinase Knowledgebase extract (Sharma et al. 2016).

pIC50: −log10 of the molar value.

Sequence of EGFR (P00533 whole entry, looked up): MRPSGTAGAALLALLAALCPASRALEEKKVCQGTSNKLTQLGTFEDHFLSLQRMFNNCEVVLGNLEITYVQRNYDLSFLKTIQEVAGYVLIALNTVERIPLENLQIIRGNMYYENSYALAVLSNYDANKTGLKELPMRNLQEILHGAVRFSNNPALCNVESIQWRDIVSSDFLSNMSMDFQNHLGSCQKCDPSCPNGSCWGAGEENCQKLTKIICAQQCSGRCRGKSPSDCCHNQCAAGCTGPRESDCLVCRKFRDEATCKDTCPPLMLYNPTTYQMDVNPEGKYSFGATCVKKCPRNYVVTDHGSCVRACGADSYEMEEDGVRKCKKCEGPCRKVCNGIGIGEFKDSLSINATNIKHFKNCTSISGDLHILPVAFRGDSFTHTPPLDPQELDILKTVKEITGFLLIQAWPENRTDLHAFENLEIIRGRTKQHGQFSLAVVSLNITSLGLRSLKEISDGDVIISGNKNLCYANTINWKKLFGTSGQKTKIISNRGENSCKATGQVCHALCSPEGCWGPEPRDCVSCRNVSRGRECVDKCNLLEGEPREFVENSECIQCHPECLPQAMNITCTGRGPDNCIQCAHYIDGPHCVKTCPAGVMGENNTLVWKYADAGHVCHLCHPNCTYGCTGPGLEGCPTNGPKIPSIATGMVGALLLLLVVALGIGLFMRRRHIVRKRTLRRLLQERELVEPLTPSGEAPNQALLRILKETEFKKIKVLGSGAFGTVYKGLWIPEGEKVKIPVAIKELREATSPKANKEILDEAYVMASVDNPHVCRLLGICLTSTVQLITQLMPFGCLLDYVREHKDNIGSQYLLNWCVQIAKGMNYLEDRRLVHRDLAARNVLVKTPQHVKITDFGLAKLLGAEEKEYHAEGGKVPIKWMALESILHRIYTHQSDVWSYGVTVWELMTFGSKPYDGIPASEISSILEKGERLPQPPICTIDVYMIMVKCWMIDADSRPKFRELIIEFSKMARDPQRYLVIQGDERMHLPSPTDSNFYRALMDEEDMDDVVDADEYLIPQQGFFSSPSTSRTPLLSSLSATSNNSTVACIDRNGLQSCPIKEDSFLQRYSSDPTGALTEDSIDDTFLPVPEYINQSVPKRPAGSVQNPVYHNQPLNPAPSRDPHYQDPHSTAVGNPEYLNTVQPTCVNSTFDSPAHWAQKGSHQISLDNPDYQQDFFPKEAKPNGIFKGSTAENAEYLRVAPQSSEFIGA

This assay concerns the target EGFR (UniProt P00533).
For the compound `C(=C\c1cncnc1Nc1ccc2c(cnn2Cc2ccccc2)c1)/c1cccnc1`, the negative logarithm of the IC50 (pIC50) is not below 5.00. `Nc1ccc(C#Cc2cncnc2Nc2ccc(OCc3cccc(F)c3)c(Cl)c2)cn1` showed a pIC50 not below 5.00. Next, `COCCNCc1cccc(C#Cc2cncnc2Nc2ccc(OCc3cccc(F)c3)c(Cl)c2)n1`: not below 5.00; `C(=C\c1cncnc1Nc1ccc2c(cnn2Cc2ccccc2)c1)/c1ccncc1`: not below 5.00; `CN(CCO)Cc1cccc(C#Cc2cncnc2Nc2ccc(OCc3cccc(F)c3)c(Cl)c2)n1`: not below 5.00. Next, `Fc1cccc(COc2ccc(Nc3ncncc3C#Cc3ncccn3)cc2Cl)c1`: not below 5.00; `Fc1cccc(COc2ccc(Nc3ncncc3/C=C/c3cccs3)cc2Cl)c1`: not below 5.00; `CC(=O)Nc1cccc(C#Cc2cncnc2Nc2ccc3c(cnn3Cc3ccccc3)c2)c1`: not below 5.00. `CNC(=O)c1cccc(/C=C/c2cncnc2Nc2ccc3[nH]c(Cc4ccccc4)nc3c2)c1` gave a pIC50 not below 5.00. The compound `C(=C\c1cncnc1Nc1ccc2sc(Cc3ccccc3)nc2c1)/c1ccsc1` had a negative logarithm of the IC50 (pIC50) of less than 6.00. `CS(=O)(=O)CCNCc1ccc(C#Cc2cncnc2Nc2ccc(OCc3cccc(F)c3)c(Cl)c2)o1` gave a pIC50 not below 5.00. Next, `CC(=O)Nc1cccc(/C=C/c2cncnc2Nc2ccc(OCc3cccc(F)c3)c(Cl)c2)c1`: more than 7.00. As for `Fc1cccc(COc2ccc(Nc3ncncc3C#Cc3cccc(CNCCCn4ccnc4)n3)cc2Cl)c1`, the negative logarithm of the IC50 (pIC50) was more than 7.00. Next, `C(=C\c1cncnc1Nc1ccc2[nH]c(Cc3ccccc3)nc2c1)/c1ccccc1`: not below 5.00; `Fc1cccc(COc2ccc(Nc3ncncc3C#Cc3ccnc(N4CCOCC4)n3)cc2Cl)c1`: not below 5.00; `O=Cc1ccccc1C#Cc1cncnc1Nc1ccc(OCc2cccc(F)c2)c(Cl)c1`: not below 5.00. Next, `COc1cccc(C#Cc2cncnc2Nc2ccc(OCc3cccc(F)c3)c(Cl)c2)n1`: not below 5.00; `Fc1cccc(COc2ccc(Nc3ncncc3C#Cc3nccs3)cc2Cl)c1`: not below 5.00. With `Cc1ccc(S(=O)(=O)n2ccc3ccc(C#Cc4cncnc4Nc4ccc(OCc5cccc(F)c5)c(Cl)c4)cc32)cc1`, the pIC50 was not below 5.00. Next, `Nc1cccc(C#Cc2cncnc2Nc2ccc(OCc3cccc(F)c3)c(Cl)c2)n1`: more than 7.00.

In the case of `C(=C\c1cncnc1Nc1ccc2[nH]c(Cc3ccccc3)nc2c1)/c1cn[nH]c1`, the pIC50 was not below 5.00. Regarding `Fc1cccc(COc2ccc(Nc3ncncc3C#Cc3cccc(CN4CCCC4)n3)cc2Cl)c1`, the negative-log IC50 (pIC50) was not below 5.00. `CC(C)(C)OC(=O)NCc1cccc(C#Cc2cncnc2Nc2ccc(OCc3cccc(F)c3)c(Cl)c2)c1` gave a pIC50 not below 5.00. With `Fc1cccc(COc2ccc(Nc3ncncc3C#Cc3ccc4c(c3)CNCC4)cc2Cl)c1` the figure was not below 5.00; with `CC(=O)Nc1cccc(/C=C/c2cncnc2Nc2ccc3c(cnn3Cc3ccccc3)c2)c1`, not below 5.00; with `COc1ccc(/C=C/c2cncnc2Nc2ccc(OCc3cccc(F)c3)c(Cl)c2)cc1OC`, more than 7.00. In turn, `Fc1cccc(C#Cc2cncnc2Nc2ccc(OCc3cccc(F)c3)c(Cl)c2)c1` showed a pIC50 not below 5.00. Next, `NCc1cccc(C#Cc2cncnc2Nc2ccc(OCc3cccc(F)c3)c(Cl)c2)n1`: not below 5.00; `Fc1cccc(COc2ccc(Nc3ncncc3C#Cc3cccc(CNCCN4CCOCC4)n3)cc2Cl)c1`: 6.00 to 7.00; `O=C(Nc1cccc(C#Cc2cncnc2Nc2ccc(OCc3cccc(F)c3)c(Cl)c2)n1)C(F)(F)Cl`: not below 5.00. `CC(=O)Nc1cccc(C#Cc2cncnc2Nc2ccc3[nH]c(Cc4ccccc4)nc3c2)c1` gave a pIC50 not below 5.00. Regarding `Fc1cccc(COc2ccc(Nc3ncncc3C#Cc3cccc(CN4CCOCC4)n3)cc2Cl)c1`, the pIC50 is not below 5.00.

Consider `NCCC(=O)Nc1cccc(C#Cc2cncnc2Nc2ccc(OCc3cccc(F)c3)c(Cl)c2)c1`, for which the pIC50 is not below 5.00.

With `O=C(Nc1cccc(C#Cc2cncnc2Nc2ccc(OCc3cccc(F)c3)c(Cl)c2)n1)C(F)(F)F`, the pIC50 was more than 7.00. With `N=C(N)Nc1cccc(C#Cc2cncnc2Nc2ccc(OCc3cccc(F)c3)c(Cl)c2)c1` the figure was 6.00 to 7.00; with `CS(=O)(=O)CCNc1nc(C#Cc2cncnc2Nc2ccc(OCc3cccc(F)c3)c(Cl)c2)ncc1C#N`, not below 5.00.

The compound `CN1CCN(Cc2cccc(C#Cc3cncnc3Nc3ccc(OCc4cccc(F)c4)c(Cl)c3)n2)CC1` had a pIC50 not below 5.00. Take `Oc1cccnc1/C=C/c1cncnc1Nc1ccc(OCc2cccc(F)c2)c(Cl)c1`: the pIC50 was not below 5.00. Next, `CNCc1cccc(C#Cc2cncnc2Nc2ccc(OCc3cccc(F)c3)c(Cl)c2)n1`: not below 5.00. In turn, `Nc1ncc(/C=C/c2cncnc2Nc2ccc3c(cnn3Cc3ccccc3)c2)cn1` showed a pIC50 not below 5.00. Next, `CN(CCO)C(=O)NCc1cccc(C#Cc2cncnc2Nc2ccc(OCc3cccc(F)c3)c(Cl)c2)n1`: not below 5.00; `CSCCC(=O)Nc1cccc(C#Cc2cncnc2Nc2ccc(OCc3cccc(F)c3)c(Cl)c2)c1`: not below 5.00.

For `Fc1cccc(COc2ccc(Nc3ncncc3C#Cc3cn[nH]c3)cc2Cl)c1`, the pIC50 is not below 5.00. With `CSc1nccc(C#Cc2cncnc2Nc2ccc(OCc3cccc(F)c3)c(Cl)c2)n1` the figure was not below 5.00. With `CC(=O)Nc1ccc(/C=C/c2cncnc2Nc2ccc(OCc3cccc(F)c3)c(Cl)c2)cn1` the figure was not below 5.00; with `Oc1cccnc1/C=C/c1cncnc1Nc1ccc2c(cnn2Cc2ccccc2)c1`, not below 5.00; with `OCc1ccc(C#Cc2cncnc2Nc2ccc(OCc3cccc(F)c3)c(Cl)c2)o1`, not below 5.00. In the case of `CS(=O)(=O)CCNCc1cccc(C#Cc2cncnc2Nc2ccc(OCc3cccc(F)c3)c(Cl)c2)c1`, the pIC50 is not below 5.00.

`Fc1cccc(COc2ccc(Nc3ncncc3/C=C/c3cccnc3)cc2Cl)c1` gave a negative-log IC50 (pIC50) not below 5.00.

For `COCCOCC(=O)Nc1cccc(C#Cc2cncnc2Nc2ccc(OCc3cccc(F)c3)c(Cl)c2)c1`, the pIC50 was not below 5.00. Regarding `Fc1cccc(COc2ccc(Nc3ncncc3/C=C/c3cn[nH]c3)cc2Cl)c1`, the pIC50 was not below 5.00. With `Fc1cccc(COc2ccc(Nc3ncncc3C#Cc3ccsc3)cc2Cl)c1` the figure was not below 5.00; with `C(#Cc1cncnc1Nc1ccc2c(ccn2Cc2ccccc2)c1)c1ccccc1`, not below 5.00. Compound `Fc1cccc(COc2ccc(Nc3ncncc3C#Cc3cccc(CN4CCNCC4)n3)cc2Cl)c1` had a pIC50 not below 5.00. With `Fc1cccc(COc2ccc(Nc3ncncc3/C=C/c3ccsc3)cc2Cl)c1` the figure was more than 7.00; with `Fc1cccc(COc2ccc(Nc3ncncc3C#Cc3ccccn3)cc2Cl)c1`, not below 5.00; with `Fc1cccc(COc2ccc(Nc3ncncc3C#Cc3cccnc3)cc2Cl)c1`, not below 5.00. With `Fc1cccc(COc2ccc(Nc3ncncc3C#Cc3cccc(CNCc4ccccc4)n3)cc2Cl)c1` the figure was not below 5.00.

The compound `N#Cc1ccccc1C#Cc1cncnc1Nc1ccc(OCc2cccc(F)c2)c(Cl)c1` showed a pIC50 not below 5.00. Next, `N#CCCNCc1cccc(C#Cc2cncnc2Nc2ccc(OCc3cccc(F)c3)c(Cl)c2)n1`: not below 5.00; `N#Cc1cccc(C#Cc2cncnc2Nc2ccc(OCc3cccc(F)c3)c(Cl)c2)c1`: not below 5.00; `CC(=O)Nc1cccc(C#Cc2cncnc2Nc2ccc(Cc3ccccc3)cc2)c1`: not below 5.00. Next, `N#CCCNC(=O)NCc1cccc(C#Cc2cncnc2Nc2ccc(OCc3cccc(F)c3)c(Cl)c2)n1`: not below 5.00. `CC(=O)Nc1cccc(C#Cc2cncnc2Nc2ccc(Oc3ccccc3)cc2)c1` had a pIC50 not below 5.00.

One may read the pIC50 as the IC50 on a negative log10 scale, so that one unit is a factor of ten. Low values mean a large IC50, high ones a small IC50.
